The target in data set [1] is T1, human recombinant C-terminal His-tagged LDHA (Homo sapiens, UniProt P00338).
T1 construct: His (C)
As to the kind of experiment: Human LDHA enzyme assay. The data set is classed as biochemical. The following applies: 50 μM pyruvate, 50 μM NADH, no HSA. As to the method: (§1) Compounds were dissolved in DMSO and preincubated with human recombinant C-terminal His-tagged LDHA (0.070 μg/mL) for 10 min at room temperature in assay buffer consisting 50 mM Tris, pH 7.5 and 100 mM NaCl in black walled, clear bottom, non-binding 96-well plates. Equal volumes of substrate solution containing 100 μM of pyruvate and 100 μM of NADH in assay buffer was added to each well (final concentration 0.035 μg/mL enzyme, 50 μM pyruvate, 50 μM NADH, and 1% DMSO). For human serum albumin (HSA) shift assay, the compounds were preincubated with the enzyme in assay buffer containing 20% HSA before substrate addition (final concentration 10% HSA). The reaction was monitored at 340 nm on a plate reader (Molecular Devices) in kinetic mode for 15 min. The rate of the reaction was determined by plotting absorbance vs time.

Data set [2] deals with fresh primary mouse hepatocytes. The data set can be described thus: Primary mouse hepatocyte assay (lactate production). The data set is classed as cell-based. The method, then: Compounds were evaluated in an ex vivo assay consisting of fresh primary mouse hepatocytes. Hepatocytes were isolated from wild type mice (C57BL/6NCrl from Charles River Labs) using a two-step collagenase perfusion technique which involves a sequential perfusion of anesthetized mice with Hanks' balanced salt solution and collagenase. Following isolation, viable wild type hepatocytes (0.1 M cells/well) were incubated with test compound in presence of pyruvate and compound potency was evaluated by measuring the lactate produced by the cells using liquid chromatography coupled to mass spectrometry. Chromatographic separation was achieved on an XDB-C18 4.6×50 mm column (Agilent, Cat #927975-902) at a flow rate of 1 mL/min Mobile phase A consisted of 0.1% formic acid in water and mobile phase B consisted of acetonitrile. A gradient program was initiated starting at 5% B which was held for 1 minutes, then ramped from 5% to 95% B over 1 minute. After holding at 95% B for 1 minute, the program changed back to 5% B. The column was equilibrated with 5% B for […] before the next injection. The mass spectrometer was operated in negative mode with electrospray ionization. The following transition along with their collision energy (CE) were used: 89→43 (CE: −16 V) for lactate and 92→45 (CE: −16 V) for ^13C3-Lactate (internal standard).

Data set [3] in a line: Liver-targeted tissue distribution profile study in rats. Type of data set: in vivo, Sprague Dawley rats. The settings on record: rat, single 10 mg/kg PO. As to the method: Plasma and liver (target organ) concentrations of test compounds were determined in rats following a single per os (PO) administration of the test compounds. Male Sprague Dawley rats (6-8 weeks of age, Charles River Labs) were fasted overnight and a single dose of test compounds (10 mg/kg; as a suspension in 0.5% methyl cellulose) was administered by PO gavage. Rats were then sacrificed at 4 and 24 h after administration of the test compounds, and plasma and liver tissue samples were collected. Liver tissue samples were homogenized in 5 volumes of water:acetonitrile (50/50; v/v) mixture using a bead mill homogenizer. Plasma and liver homogenate samples were processed by protein precipitation using acetonitrile and the concentrations of the test compounds were determined by liquid chromatography-tandem mass spectrometry (SciEx triple quad 5500+ with Exion UPLC).
Liver and plasma exposures at the 4 h and 24 h timepoints for the various compounds are described in Table 5 below. Measured compound concentrations are as follows: ++++>10 μM; 10 μM≥+++>5 μM; 5 μM≥++>1 μM; 1 μM≥+>0.25 μM; and 0.25 μM≥−.

Data set [4] concerns the target T1, human recombinant C-terminal His-tagged LDHA. As to the kind of experiment: Human LDHA enzyme assay, human serum albumin (HSA) shift. The data set is classed as biochemical. The following applies: final concentration 10% HSA. As to the method:
as §1

Where [5] appears, read: Run at 0.4M cells/well concentration of hepatocytes.

`NS(=O)(=O)c1ccc(Cc2c(-c3ccc(Cl)cc3)nn(-c3nc(C(=O)O)cs3)c2CC2CC2)cc1F` [Example 16, 2-(3-(4-chlorophenyl)-5-(cyclopropylmethyl)-4-(3-fluoro-4-sulfamoylbenzyl)-1H-pyrazol-1-yl)thiazole-4-carboxylic acid]: the IC50 in data set [1] is below 1 nM. In data set [2] (setting [5]), this compound showed an IC50 below 100 nM. In addition, in data set [3], the “Measured Compound Concentrations Liver - 4 h” value was “++ (5 μM≥++>1 μM)”, the “Measured Compound Concentrations Liver - 24 h” value is “− (0.25 μM≥−)”, the “Measured Compound Concentrations Plasma - 4 h” value is on record as “− (0.25 μM≥−)” and the “Measured Compound Concentrations Plasma - 24 h” value was “− (0.25 μM≥−)”. Moreover, the IC50 in data set [4] is 10 to 100 nM.
With `NS(=O)(=O)c1ccc(Cc2c(-c3cccc(F)c3)nn(-c3nc(C(=O)O)cs3)c2CC2CC2)cc1F` [Example 14, 2-(5-(cyclopropylmethyl)-4-(3-fluoro-4-sulfamoylbenzyl)-3-(3-fluorophenyl)-1H-pyrazol-1-yl)thiazole-4-carboxylic acid], the IC50 in data set [1] was below 1 nM. The compound further registered a concentration for half-maximal inhibition (IC50) in data set [2] (setting [5]) below 100 nM. For the same compound, in data set [3], the “Measured Compound Concentrations Liver - 4 h” value is given as “++++ (++++>10 μM)”, the “Measured Compound Concentrations Liver - 24 h” value was “+ (1 μM≥+>0.25 μM)”, the “Measured Compound Concentrations Plasma - 4 h” value is “− (0.25 μM≥−)” and the “Measured Compound Concentrations Plasma - 24 h” value was “− (0.25 μM≥−)”. In data set [4], the half-maximal inhibitory concentration (IC50) was 1 to 10 nM.
For the compound `NS(=O)(=O)c1ccc(Cc2c(-c3cccc(OCC(F)(F)F)c3)nn(-c3nc(C(=O)O)cs3)c2CC2CC2)cc1F` [Example 22, 2-(5-(cyclopropylmethyl)-4-(3-fluoro-4-sulfamoylbenzyl)-3-(3-(2,2,2-trifluoroethoxy)phenyl)-1H-pyrazol-1-yl)thiazole-4-carboxylic acid], in data set [1], the concentration for half-maximal inhibition (IC50) is below 1 nM. The half-inhibitory concentration (IC50) in data set [2] (0.1 M cells/well) is below 100 nM. Besides, in data set [3], the “Measured Compound Concentrations Liver - 4 h” value is “++ (5 μM≥++>1 μM)”, the “Measured Compound Concentrations Liver - 24 h” value is reported as “− (0.25 μM≥−)”, the “Measured Compound Concentrations Plasma - 4 h” value is recorded as “− (0.25 μM≥−)” and the “Measured Compound Concentrations Plasma - 24 h” value is on record as “− (0.25 μM≥−)”. Also, the IC50 in data set [4] was in the range of 1 to 10 nM.
Consider `NS(=O)(=O)c1ccc(Cc2c(-c3cc(F)cc(F)c3)nn(-c3nc(C(=O)O)cs3)c2CC2CC2)cc1F` [Example 15, 2-(5-(cyclopropylmethyl)-3-(3,5-difluorophenyl)-4-(3-fluoro-4-sulfamoylbenzyl)-1H-pyrazol-1-yl)thiazole-4-carboxylic acid], for which, in data set [1], the 50% inhibitory concentration (IC50) is below 1 nM. In data set [2] (setting [5]), the IC50 was below 100 nM. In data set [3], the “Measured Compound Concentrations Liver - 4 h” value was “++++ (++++>10 μM)”, the “Measured Compound Concentrations Liver - 24 h” value is given as “+ (1 μM≥+>0.25 μM)”, the “Measured Compound Concentrations Plasma - 4 h” value is on record as “− (0.25 μM≥−)” and the “Measured Compound Concentrations Plasma - 24 h” value is listed as “− (0.25 μM≥−)”. Besides, the concentration for half-maximal inhibition (IC50) in data set [4] fell in the range of 1 to 10 nM.
On to `NS(=O)(=O)c1c(F)cc(Cc2c(-c3ccc(F)cc3)nn(-c3nc(C(=O)O)cs3)c2CC2CC2)cc1F` [Example 27, 2-(5-(Cyclopropylmethyl)-4-(3,5-difluoro-4-sulfamoylbenzyl)-3-(4-fluorophenyl)-1H-pyrazol-1-yl)thiazole-4-carboxylic acid], for which the IC50 in data set [1] is below 1 nM; in data set [2] (0.1 M cells/well) it was 100 to 250 nM; in data set [4] it was 1 to 10 nM.
In the case of `NS(=O)(=O)c1ccc(Cc2c(-c3cccc(Cl)c3)nn(-c3nc(C(=O)O)cs3)c2CC2CC2)cc1F` [Example 17, 2-(3-(3-chlorophenyl)-5-(cyclopropylmethyl)-4-(3-fluoro-4-sulfamoylbenzyl)-1H-pyrazol-1-yl)thiazole-4-carboxylic acid], in data set [1], the half-inhibitory concentration (IC50) is below 1 nM. The compound further yielded an IC50 in data set [2] (0.1 M cells/well) below 100 nM. Moreover, in data set [3], the “Measured Compound Concentrations Liver - 4 h” value is listed as “+++ (10 μM≥+++>5 μM)”, the “Measured Compound Concentrations Liver - 24 h” value was “− (0.25 μM≥−)”, the “Measured Compound Concentrations Plasma - 4 h” value is on record as “− (0.25 μM≥−)” and the “Measured Compound Concentrations Plasma - 24 h” value is listed as “− (0.25 μM≥−)”. Also, the IC50 in data set [4] is 1 to 10 nM.
`N#Cc1cccc(-c2nn(-c3nc(C(=O)O)cs3)c(CC3CC3)c2Cc2ccc(S(N)(=O)=O)c(F)c2)c1` [Example 11, 2-(3-(3-cyanophenyl)-5-(cyclopropylmethyl)-4-(3-fluoro-4-sulfamoylbenzyl)-1H-pyrazol-1-yl)thiazole-4-carboxylic acid]: the half-maximal inhibitory concentration (IC50) in data set [1] is below 1 nM. Further, the IC50 in data set [2] (0.1 M cells/well) was below 100 nM. Further, in data set [3], the “Measured Compound Concentrations Liver - 4 h” value is listed as “+++ (10 μM≥+++>5 μM)”, the “Measured Compound Concentrations Liver - 24 h” value is recorded as “− (0.25 μM≥−)”, the “Measured Compound Concentrations Plasma - 4 h” value is reported as “− (0.25 μM≥−)” and the “Measured Compound Concentrations Plasma - 24 h” value is reported as “− (0.25 μM≥−)”. The concentration for half-maximal inhibition (IC50) in data set [4] was 1 to 10 nM.
In the case of `NS(=O)(=O)c1ccc(Cc2c(-c3cccc(OC(F)(F)F)c3)nn(-c3nc(C(=O)O)cs3)c2CC2CC2)cc1F` [Example 19, 2-(5-(cyclopropylmethyl)-4-(3-fluoro-4-sulfamoylbenzyl)-3-(3-(trifluoromethoxy)phenyl)-1H-pyrazol-1-yl)thiazole-4-carboxylic acid], the IC50 in data set [1] is below 1 nM. The IC50 in data set [2] (0.1 M cells/well) is 100 to 250 nM. For the same compound, in data set [3], the “Measured Compound Concentrations Liver - 4 h” value is on record as “+++ (10 μM≥+++>5 μM)”, the “Measured Compound Concentrations Liver - 24 h” value is reported as “− (0.25 μM≥−)”, the “Measured Compound Concentrations Plasma - 4 h” value is recorded as “− (0.25 μM≥−)” and the “Measured Compound Concentrations Plasma - 24 h” value was “− (0.25 μM≥−)”. For the same compound, the half-maximal inhibitory concentration (IC50) in data set [4] fell in the range of 1 to 10 nM.
Consider `NS(=O)(=O)c1ccc(Cc2c(-c3ccccc3F)nn(-c3nc(C(=O)O)cs3)c2CC2CC2)cc1F` [Example 25], for which the IC50 in data set [1] is below 1 nM. This compound also gave an IC50 in data set [2] (0.1 M cells/well) of 100 to 250 nM. In data set [3], the “Measured Compound Concentrations Liver - 4 h” value was “+++ (10 μM≥+++>5 μM)”, the “Measured Compound Concentrations Liver - 24 h” value is given as “− (0.25 μM≥−)”, the “Measured Compound Concentrations Plasma - 4 h” value is recorded as “− (0.25 μM≥−)” and the “Measured Compound Concentrations Plasma - 24 h” value is recorded as “− (0.25 μM≥−)”. Besides, in data set [4], the 50% inhibitory concentration (IC50) was in the range of 10 to 100 nM.
Turning to `NS(=O)(=O)c1ccc(Cc2c(-c3ccc(F)cc3)nn(-c3nc(C(=O)O)co3)c2CC2CC2)cc1F` [Example 9, 2-(5-(Cyclopropylmethyl)-4-(3-fluoro-4-sulfamoylbenzyl)-3-(4-fluorophenyl)-1H-pyrazol-1-yl)oxazole-4-carboxylic acid], in data set [1], the half-inhibitory concentration (IC50) was below 1 nM. In addition, the IC50 in data set [2] (setting [5]) is 100 to 250 nM. In addition, in data set [3], the “Measured Compound Concentrations Liver - 4 h” value is reported as “++ (5 μM≥++>1 μM)”, the “Measured Compound Concentrations Liver - 24 h” value is listed as “− (0.25 μM≥−)”, the “Measured Compound Concentrations Plasma - 4 h” value is “− (0.25 μM≥−)” and the “Measured Compound Concentrations Plasma - 24 h” value is reported as “− (0.25 μM≥−)”. Besides, in data set [4], the 50% inhibitory concentration (IC50) lay in the range of 1 to 10 nM.
Consider `COc1cc(-c2nn(-c3nc(C(=O)O)cs3)c(CC3CC3)c2Cc2ccc(S(N)(=O)=O)c(F)c2)ccc1C#N` [Example 23, 2-(3-(4-cyano-3-methoxyphenyl)-5-(cyclopropylmethyl)-4-(3-fluoro-4-sulfamoylbenzyl)-1H-pyrazol-1-yl)thiazole-4-carboxylic acid], for which the figures for the concentration for half-maximal inhibition (IC50) in data set [1], in data set [2] (0.1 M cells/well) and in data set [4] were below 1 nM, below 100 nM and 1 to 10 nM, respectively.
In the case of `COc1cc(F)cc(-c2nn(-c3nc(C(=O)O)cs3)c(CC3CC3)c2Cc2ccc(S(N)(=O)=O)c(F)c2)c1` [Example 24, 2-(5-(cyclopropylmethyl)-4-(3-fluoro-4-sulfamoylbenzyl)-3-(3-fluoro-5-methoxyphenyl)-1H-pyrazol-1-yl)thiazole-4-carboxylic acid], the IC50 in data set [1] is 1 to 10 nM; in data set [2] (0.1 M cells/well), below 100 nM; in data set [4], 1 to 10 nM.

Values taken from patent US20230183228A1, “SUBSTITUTED PYRAZOLYL COMPOUNDS AND METHODS OF USE THEREOF” (Chinook Therapeutics Canada, Inc., priority 2020, published 2023).
